Source: ChEMBL document CHEMBL3868581, “Avarol derivatives as competitive AChE inhibitors, non hepatotoxic and neuroprotective agents for Alzheimer's disease” (Eur J Med Chem, 2016)
Calls of active or inactive are those of the source. No cut-off for these calls is given here.

Assays:
[1] = target: Acetylcholinesterase (Electrophorus electricus) (UniProt O42275); experiment: Competitive inhibition of Electrophorus electricus AChE using acetylthiocholine iodide as substrate at 0.001 to 10 uM incubated for 15 mins followed by substrate addition by Lineweaver-Burk reciprocal plot analysis
Acetylcholinesterase (Electrophorus electricus), sequence (O42275 24-633 limits assumed): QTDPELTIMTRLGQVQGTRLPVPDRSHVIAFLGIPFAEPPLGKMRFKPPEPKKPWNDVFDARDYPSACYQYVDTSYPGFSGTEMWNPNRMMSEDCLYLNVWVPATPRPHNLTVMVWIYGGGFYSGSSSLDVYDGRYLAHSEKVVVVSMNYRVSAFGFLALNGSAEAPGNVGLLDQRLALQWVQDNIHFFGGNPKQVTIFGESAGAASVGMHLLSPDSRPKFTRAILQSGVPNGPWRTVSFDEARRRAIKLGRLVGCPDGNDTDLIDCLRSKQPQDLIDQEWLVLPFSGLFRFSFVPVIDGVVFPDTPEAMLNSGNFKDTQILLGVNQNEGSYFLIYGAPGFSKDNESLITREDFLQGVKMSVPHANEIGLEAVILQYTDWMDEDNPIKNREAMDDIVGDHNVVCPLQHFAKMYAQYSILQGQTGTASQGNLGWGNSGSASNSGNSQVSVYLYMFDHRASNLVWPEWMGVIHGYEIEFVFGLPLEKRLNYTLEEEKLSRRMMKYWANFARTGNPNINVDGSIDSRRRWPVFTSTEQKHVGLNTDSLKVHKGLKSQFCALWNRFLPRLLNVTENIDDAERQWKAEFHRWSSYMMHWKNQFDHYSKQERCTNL

[2] = target: T1, Acetylcholinesterase (Electrophorus electricus, UniProt O42275)
T1 sequence (O42275 whole entry): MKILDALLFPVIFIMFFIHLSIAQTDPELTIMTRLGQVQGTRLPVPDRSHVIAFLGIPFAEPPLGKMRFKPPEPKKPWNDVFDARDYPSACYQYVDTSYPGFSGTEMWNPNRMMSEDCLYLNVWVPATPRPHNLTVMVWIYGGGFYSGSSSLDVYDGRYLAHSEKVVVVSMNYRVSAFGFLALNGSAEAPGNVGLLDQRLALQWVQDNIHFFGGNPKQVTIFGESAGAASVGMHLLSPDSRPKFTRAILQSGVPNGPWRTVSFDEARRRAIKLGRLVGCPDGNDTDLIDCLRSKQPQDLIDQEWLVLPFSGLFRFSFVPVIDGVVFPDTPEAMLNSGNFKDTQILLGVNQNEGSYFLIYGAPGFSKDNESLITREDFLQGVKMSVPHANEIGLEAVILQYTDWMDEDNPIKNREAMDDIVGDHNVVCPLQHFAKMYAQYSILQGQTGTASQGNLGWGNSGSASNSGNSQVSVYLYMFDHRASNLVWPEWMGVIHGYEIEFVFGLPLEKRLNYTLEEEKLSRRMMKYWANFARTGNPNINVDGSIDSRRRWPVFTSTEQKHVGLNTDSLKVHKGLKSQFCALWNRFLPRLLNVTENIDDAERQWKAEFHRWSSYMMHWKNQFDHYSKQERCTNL
Description: Inhibition of Electrophorus electricus AChE using acetylthiocholine iodide as substrate incubated for 15 mins followed by substrate addition by Ellman's method

[3] = target: Cholinesterase (Equus caballus) (UniProt P81908); experiment: Inhibition of equine serum BuChE using butyrylthiocholine iodide as substrate at 50 uM incubated for 15 mins followed by substrate addition by Ellman's method
Cholinesterase (Equus caballus), sequence (P81908 whole entry): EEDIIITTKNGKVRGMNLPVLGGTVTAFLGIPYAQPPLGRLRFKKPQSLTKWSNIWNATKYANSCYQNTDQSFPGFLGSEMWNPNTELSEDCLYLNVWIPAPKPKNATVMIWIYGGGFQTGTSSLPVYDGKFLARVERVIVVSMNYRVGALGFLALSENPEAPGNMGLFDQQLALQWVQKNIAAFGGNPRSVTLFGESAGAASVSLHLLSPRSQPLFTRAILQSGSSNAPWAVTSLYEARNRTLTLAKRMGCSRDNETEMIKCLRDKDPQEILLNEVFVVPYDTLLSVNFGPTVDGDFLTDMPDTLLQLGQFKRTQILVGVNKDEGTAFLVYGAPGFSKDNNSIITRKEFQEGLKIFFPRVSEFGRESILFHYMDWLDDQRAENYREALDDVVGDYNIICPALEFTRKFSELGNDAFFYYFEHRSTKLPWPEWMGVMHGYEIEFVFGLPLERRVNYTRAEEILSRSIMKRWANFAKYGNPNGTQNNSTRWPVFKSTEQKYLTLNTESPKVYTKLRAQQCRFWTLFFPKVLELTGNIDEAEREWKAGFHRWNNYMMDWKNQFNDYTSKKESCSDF

[4] = target: Cholinesterase (Equus caballus, UniProt P81908)
Cholinesterase, sequence (P81908 whole entry): as above
Description: Inhibition of equine serum BuChE using butyrylthiocholine iodide as substrate incubated for 15 mins followed by substrate addition by Ellman's method

[5] = target: T1, Acetylcholinesterase; remark: listed apart in the source
Description: Inhibition of Electrophorus electricus AChE using acetylthiocholine iodide as substrate by Dixon plot analysis

[6] = Neurotoxicity in human SH-SY5Y cells assessed as decrease in cell viability at 25 to 50 uM after 24 hrs by XTT assay; assay type: toxicity, cell-based
[7] = Neurotoxicity in human SH-SY5Y cells assessed as decrease in cell viability at 1 uM after 24 hrs by XTT assay; assay type: toxicity, cell-based
[8] = test system: HepG2; experiment: Hepatotoxicity in human HepG2 cells assessed as decrease in cell viability at 1 to 100 uM after 24 hrs by XTT assay; assay type: toxicity, cell-based; conditions: hepg2, 24 h
[9] = cells; conditions: Homo sapiens, SH-SY5Y, 24 h
Description: Neuroprotective activity against oligomycine/rotenone-induced oxidative stress-mediated cell death in human SH-SY5Y cells assessed as increase in cell viability after 24 hrs by XTT assay

[10] = cells; conditions: Homo sapiens, SH-SY5Y, 24 h; remark: listed apart in the source
Description: Neuroprotective activity against okadaic acid-induced tau phosphorylation-mediated cell death in human SH-SY5Y cells assessed as increase in cell viability after 24 hrs by XTT assay

[11] = test system: SH-SY5Y; experiment: Neuroprotective activity against oligomycine/rotenone-induced oxidative stress-mediated cell death in human SH-SY5Y cells assessed as increase in cell viability at 10 uM after 24 hrs by microscopic analysis; assay type: functional, cell-based
[12] = test system: HepG2; experiment: Hepatoprotective activity in human HepG2 cells at 1 to 25 uM after 24 hrs by XTT assay; assay type: functional, cell-based
[13] = test system: SH-SY5Y; experiment: Neuroprotective activity against okadaic acid-induced tau phosphorylation-mediated cell death in human SH-SY5Y cells assessed as increase in cell viability at 10 uM after 24 hrs by microscopic analysis; assay type: functional, cell-based
[14] = cells; conditions: Rattus norvegicus, Sprague-Dawley, Cortical neurone, 3 h
Description: Neuroprotective activity against NMDA-induced excitotoxicity in Sprague-Dawley rat primary cortical neurons assessed as increase in cell viability after 3 hrs by MTT assay

[15] = test system: HepG2; experiment: Hepatotoxicity in human HepG2 cells assessed as decrease in cell viability at 100 uM after 24 hrs by XTT assay; assay type: toxicity, cell-based; conditions: hepg2, 24 h

SMILES | inhibition [1] | IC50 [2] [µM] | Imax [3] [%] | IC50 [4] [µM] | Ki [5] [nM] | Activity [6] | Activity [7] | Activity [8] | EC50 [9] [µM] | EC50 [10] [µM] | Activity [11] | Activity [12] | Activity [13] | EC50 [14] [µM] | Activity [15]
CC1=CCC[C@H]2[C@](C)(Cc3cc(O)cc(Sc4ccccc4C(=O)O)c3O)[C@@H](C)CC[C@]12C | Active | 15.1 | 77.5 | 15.1 | 0.0585 |  |  |  |  |  |  |  |  |  | 
CC1=CCC[C@H]2[C@](C)(Cc3cc(O)ccc3O)[C@@H](C)CC[C@]12C [AVAROL] |  | 286 |  |  |  | Non-Toxic | Non-Toxic |  |  |  |  |  |  |  | 
CC(C)=CCC/C(C)=C/CC/C(C)=C/Cc1cc(O)cc(Sc2ccccc2C(=O)O)c1O |  | 18.1 | 8.4 |  |  | Non-Toxic | Non-Toxic | Non-Toxic | 13.6 | 0.516 |  |  |  |  | 
CC(C)=CCC/C(C)=C/CC/C(C)=C/CC/C(C)=C/Cc1cc(O)cc(Sc2ccccc2C(=O)O)c1O | Active | 6.77 | 60.5 | 19.7 | 0.00059 | Non-Toxic | Non-Toxic | Non-Toxic | 0.52 | 0.15 | Active | Active | Active |  | 
CC(C)=CCc1cc(O)cc(Sc2ccccc2C(=O)O)c1O | Active | 7.88 | 13.1 |  | 0.221 | Non-Toxic | Non-Toxic | Non-Toxic | 4.65 | 0.54 |  |  |  |  | 
COc1ccc2c3c1O[C@H]1C[C@@H](O)C=C[C@@]31CCN(C)C2 [GALANTAMINE] |  |  |  |  |  | Non-Toxic | Non-Toxic |  | 2.81 | 1.94 |  |  |  | 1.48 | 
C/C(=C\Cc1cc(O)cc(Sc2ccccc2C(=O)O)c1O)CCCC(C)CCCC(C)CCCC(C)C (configuration not stated) |  | 13.8 | 94.3 to 95 | 12.8 |  | Non-Toxic | Non-Toxic |  | 1.1 | 1.21 |  |  |  |  | Toxic
CC(C)=CCC/C(C)=C/Cc1cc(O)cc(Sc2ccccc2C(=O)O)c1O |  | 13.1 | 17.8 |  |  | Non-Toxic | Non-Toxic | Non-Toxic | 8.17 | 0.22 |  |  |  |  | 
